Data on 48 molecules can be found in patent US4472582A, “3,5-Disubstituted-4'-(9-acridinylamino)-methane-sulfon-m-anisidide compounds having antitumor properties” (Development Finance Corporation of New Zealand, priority 1979, dated 1984).

This assay relates to L1210 leukemia (ip). The assay is described as follows: Antileukemic screen, L1210 tumour ip, drug ip qd 1-5. The format is in vivo, mice (C3H/DBA2 F1 hybrids). To be noted: for Observed ILS compared with predicted ILS: in words. The text has this:
In initial screening a standard drug administration schedule has been employed (ip, qd 1-5) and mice (C3 H/DBA2 F1 hybrids) bred in the laboratory, receive a standard tumor inoculum of 10^5 L1210 cells ip on day 0. After range finding experiments, an LD10 dose has then been derived employing doses separated by 0.05 log.dose units, an acceptable soluble drug formulation (B. F. Cain, R. N. Seelye and G. J. Atwell, J. Med. Chem., 17, 922-930 (1974)) and groups of six tumored mice at each dose level. Deaths occuring before day 8 have been taken as resulting from drug toxicity. From the linear regression relating percent probit-mortality and the logarithms of the corresponding doses, an LD10 value has been derived. Profiles of antileukemic activity have been obtained employing doses separated by 0.09 log.dose intervals. Significant percentage increases in life span of leukemic animals, obtained at and below the LD10 dose, have been linearly correlated with the logarithms of the corresponding doses. The increase in life span (ILS) specified by the life extension-log.dose regression line at the measured LD10 provides a representative measure of antileukemic effectiveness at a standard host load in toxicity (W. A. Denny and B. F. Cain, J. Med. Chem., 21, 430-437 (1978)). For congener selection ILS has been employed as a measure of factor (1) above and LD10 for factor (2). Desirable drug pharmacokinetic properties (factor (3)) have been screened for by employing standard ip drug administration and implanting tumor more remotely; either subcutaneously (sc) or intracerabrally (ic) (B. F. Cain and G. J. Atwell Europ J. Cancer, 10, 539 549 (1974), B. F. Cain and G. J. Atwell, J. Med. Chem., 19 1409-1416 (1976)).
ILS and LD10=as defined above.
D40=the drug dose necessary to provide 40% ILS in standard L1210 assays.

The mark [1] stands for this setting: monosubstituted m-AMSA, Table V.

Turning to `COc1cc(NS(C)(=O)=O)ccc1Nc1c2ccccc2nc2cc(Br)c(N)cc12` [Compound C1], under “L1210-ip, qd 1-5, Table IV”, the “ILS Observed” value is given as 90%. On to `COc1cc(NS(C)(=O)=O)ccc1Nc1c2ccccc2nc2cc(C(F)(F)F)c(N)cc12` [Compound C2], for which the “Observed ILS compared with predicted ILS” value is reported as “observed ILS values greater than their predicted ILS values”. In addition, under “L1210-ip, qd 1-5, Table IV”, the “ILS Observed” value stood at 108%. For `COc1cc(NS(C)(=O)=O)ccc1Nc1c2ccccc2nc2c(C)c([N+](=O)[O-])ccc12` [Compound C3], the “ILS Observed” value (L1210-ip, qd 1-5, Table IV) turned out to be 54%.

As for `COc1cc(NS(C)(=O)=O)ccc1Nc1c2ccccc2nc2c(C)c(C)ccc12` [Compound C4], the “ILS Observed” value (L1210-ip, qd 1-5, Table IV) is reported as 79%. Turning to `COc1cc(NS(C)(=O)=O)ccc1Nc1c2ccc([N+](=O)[O-])cc2nc2c(C)cccc12` [Compound C5], the “Observed ILS compared with predicted ILS” value is recorded as “observed ILS values greater than their predicted ILS values”. For the same molecule, the “ILS Observed” value (L1210-ip, qd 1-5, Table IV) was 107%. Turning to `COc1cc(NS(C)(=O)=O)ccc1Nc1c2ccc([N+](=O)[O-])cc2nc2c(OC)cccc12` [Compound C6], the “ILS Observed” value (L1210-ip, qd 1-5, Table IV) was 66%. `COc1cc(NS(C)(=O)=O)ccc1Nc1c2ccc(N)cc2nc2c(C)cccc12` [Compound C7]: the “Observed ILS compared with predicted ILS” value is listed as “observed ILS values greater than their predicted ILS values”. Under “L1210-ip, qd 1-5, Table IV”, the “ILS Observed” value came out at 125%. Turning to `COc1cc(NS(C)(=O)=O)ccc1Nc1c2ccc(I)cc2nc2c(C)cccc12` [Compound C8], for the setting “L1210-ip, qd 1-5, Table IV”, the “ILS Observed” value was 86%.

Consider `COc1cc(NS(C)(=O)=O)ccc1Nc1c2ccc(I)cc2nc2c(OC)cccc12` [Compound C9], for which, where the note is “L1210-ip, qd 1-5, Table IV”, the “ILS Observed” value is listed as 63%. The same measure, in the same setting: the figure for `CNc1ccc2c(Nc3ccc(NS(C)(=O)=O)cc3OC)c3cccc(C)c3nc2c1` [Compound C10] is 68%; for `COc1cc(NS(C)(=O)=O)ccc1Nc1c2ccc(Cl)cc2nc2c(C)cccc12` [Compound C11] it is 57%; for `COc1cc(NS(C)(=O)=O)ccc1Nc1c2ccc(Cl)cc2nc2c(OC)cccc12` [Compound C12] it is 82%. Still for that read-out and setting: for `COc1cc(NS(C)(=O)=O)ccc1Nc1c2ccc(C)cc2nc2c(C)cccc12` [Compound C13] the value was 97%. Take `COc1cc(NS(C)(=O)=O)ccc1Nc1c2ccc(C)cc2nc2c(C(N)=O)cccc12` [Compound C14]: the “ILS Observed” value (L1210-ip, qd 1-5, Table IV) was determined as 100%. Take `COc1cc(NS(C)(=O)=O)ccc1Nc1c2ccc(Cl)cc2nc2c(C(N)=O)cccc12` [Compound C15]: the “ILS Observed” value (L1210-ip, qd 1-5, Table IV) is 90%.

For the molecule `COc1cc(NS(C)(=O)=O)ccc1Nc1c2ccc([N+](=O)[O-])cc2nc2c(C(N)=O)cccc12` [Compound C16], the “Observed ILS compared with predicted ILS” value is reported as “observed ILS values greater than their predicted ILS values”. In addition, the “ILS Observed” value (L1210-ip, qd 1-5, Table IV) was determined as 100%. As for `COc1cc(NS(C)(=O)=O)ccc1Nc1c2ccc(C(N)=O)cc2nc2c(C)cccc12` [Compound C17], the “Observed ILS compared with predicted ILS” value is “observed ILS values greater than their predicted ILS values”. The “ILS Observed” value (L1210-ip, qd 1-5, Table IV) came out at 150%.

Consider `COc1cc(NS(C)(=O)=O)ccc1Nc1c2ccc(C(N)=O)cc2nc2c(OC)cccc12` [Compound C18], for which the “ILS Observed” value (L1210-ip, qd 1-5, Table IV) was 70%.

Turning to `COc1cc(NS(C)(=O)=O)ccc1Nc1c2ccc(Cl)cc2nc2cc(Cl)ccc12` [Compound C19], the “ILS Observed” value (L1210-ip, qd 1-5, Table IV) was found to be 52%. Same read-out and setting: the figure for `COc1cc(NS(C)(=O)=O)ccc1Nc1c2ccc(Cl)cc2nc2cc(C(F)(F)F)ccc12` [Compound C20] is 5%. In the case of `COc1cc(NS(C)(=O)=O)ccc1Nc1c2ccc(Br)cc2nc2cc(Br)ccc12` [Compound C21], the “ILS Observed” value (L1210-ip, qd 1-5, Table IV) turned out to be 82%.

`COc1cc(NS(C)(=O)=O)ccc1Nc1c2ccc(C)cc2nc2cc([N+](=O)[O-])ccc12` [Compound C22]: the “Observed ILS compared with predicted ILS” value is listed as “observed ILS values greater than their predicted ILS values”. The “ILS Observed” value (L1210-ip, qd 1-5, Table IV) is on record as 91%.

Turning to `COc1cc(NS(C)(=O)=O)ccc1Nc1c2ccc([N+](=O)[O-])cc2nc2cc([N+](=O)[O-])ccc12` [Compound C23], the “ILS Observed” value (L1210-ip, qd 1-5, Table IV) was found to be 58%.

Consider `COc1cc(NS(C)(=O)=O)ccc1Nc1c2cccc(C)c2nc2c(C)cccc12` [Compound C24], for which the “ILS Observed” value (L1210-ip, qd 1-5, Table IV) was found to be 87%. The same measure, in the same setting: the figure for `COc1cc(NS(C)(=O)=O)ccc1Nc1c2ccccc2nc2c(C)c(C)c(N)cc12` [Compound C25] is 61%; for `COc1cc(NS(C)(=O)=O)ccc1Nc1c2cc(N)c(Br)cc2nc2c(C)cccc12` [Compound C26] it is 83%; for `COc1cc(NS(C)(=O)=O)ccc1Nc1c2cccc(C)c2nc2c(C)c([N+](=O)[O-])ccc12` [Compound C27] it is 28%. Same read-out and setting: for `COc1cc(NS(C)(=O)=O)ccc1Nc1c2cccc(C)c2nc2c(C)c(C)ccc12` [Compound C28] the value was 76%; for `COc1cc(NS(C)(=O)=O)ccc1Nc1c2ccc(C)cc2nc2c(C)c(C)ccc12` [Compound C29], 58%. For `COc1cc(NS(C)(=O)=O)ccc1Nc1c2ccc([N+](=O)[O-])cc2nc2c(C)c(C)ccc12` [Compound C30], under “L1210-ip, qd 1-5, Table IV”, the “ILS Observed” value came to 92%. Consider `COc1cc(NS(C)(=O)=O)ccc1Nc1c2ccc(N)cc2nc2c(C)c(C)ccc12` [Compound C31], for which, where the note is “L1210-ip, qd 1-5, Table IV”, the “ILS Observed” value was determined as 79%. Still for that read-out and setting: the figure for `CNc1ccc2c(Nc3ccc(NS(C)(=O)=O)cc3OC)c3ccc(C)c(C)c3nc2c1` [Compound C32] is 64%. As to `COc1cc(NS(C)(=O)=O)ccc1Nc1c2ccccc2nc2ccc(N)cc12` [Compound M1], the “ILS Observed” value under setting [1] stood at 106%. Regarding `COc1cc(NS(C)(=O)=O)ccc1Nc1c2ccccc2nc2cc(C)ccc12` [Compound M2], the “ILS Observed” value under setting [1] is 88%. Turning to `COc1cc(NS(C)(=O)=O)ccc1Nc1c2ccccc2nc2cc(C(N)=O)ccc12` [Compound M3], the “ILS Observed” value under setting [1] is given as 150%. Regarding `CNC(=O)c1ccc2c(Nc3ccc(NS(C)(=O)=O)cc3OC)c3ccccc3nc2c1` [Compound M4], the “ILS Observed” value under setting [1] stood at 92%.

As for `COc1cc(NS(C)(=O)=O)ccc1Nc1c2ccccc2nc2cc(Cl)ccc12` [Compound M5], the “ILS Observed” value under setting [1] is recorded as 72%.

As to `COc1cc(NS(C)(=O)=O)ccc1Nc1c2ccccc2nc2cc(Br)ccc12` [Compound M6], the “ILS Observed” value under setting [1] is on record as 119%. Regarding `COc1cc(NS(C)(=O)=O)ccc1Nc1c2ccccc2nc2cc(I)ccc12` [Compound M7], the “ILS Observed” value under setting [1] came to 98%. On the same count and under the same terms, the figure for `COc1cc(NS(C)(=O)=O)ccc1Nc1c2ccccc2nc2cc(C(F)(F)F)ccc12` [Compound M8] is 63%; for `COc1cc(NS(C)(=O)=O)ccc1Nc1c2ccccc2nc2cc(N)ccc12` [Compound M9] it is 82%. Regarding `CNc1ccc2c(Nc3ccc(NS(C)(=O)=O)cc3OC)c3ccccc3nc2c1` [Compound M10], the “ILS Observed” value under setting [1] was 94%. Consider `COc1cc(NS(C)(=O)=O)ccc1Nc1c2ccccc2nc2cc([N+](=O)[O-])ccc12` [Compound M11], for which, under setting [1], the “ILS Observed” value was 84%.

`COc1cc(NS(C)(=O)=O)ccc1Nc1c2ccccc2nc2c(C)cccc12` [Compound M12]: the “ILS Observed” value under setting [1] is 111%. Regarding `COc1cc(NS(C)(=O)=O)ccc1Nc1c2ccccc2nc2c(C(N)=O)cccc12` [Compound M13], the “ILS Observed” value under setting [1] is recorded as 112%. The same measure, in the same setting: for `CNC(=O)c1cccc2c(Nc3ccc(NS(C)(=O)=O)cc3OC)c3ccccc3nc12` [Compound M14] the value was 135%; for `COc1cc(NS(C)(=O)=O)ccc1Nc1c2ccccc2nc2c(C(=O)NCC(N)=O)cccc12` [Compound M15], 98%. As for `COc1cc(NS(C)(=O)=O)ccc1Nc1c2ccccc2nc2c(OC)cccc12` [Compound M16], the “ILS Observed” value under setting [1] stood at 110%.
